The target of series [1] is T1, Cytochrome P450 3A5 (Homo sapiens, UniProt P20815). Briefly: (§1) Inhibition of recombinant human CYP3A5 using testosterone as substrate. The format is ADME.
A short description of series [2]: AUC (0 to t) in ICR mouse at 2 mg/kg, po measured after 0.0833 to 120 hrs by LC-MS-MS analysis. The format is ADME, organism-based. Also on record: time upper 120 hr, time lower 0.083 hr, dose 2 mg/kg, route oral. The settings on record: in vivo.
The target of series [3] is T2, Cytochrome P450 2A6 (Homo sapiens, UniProt P11509).
T2 sequence (P11509 whole entry): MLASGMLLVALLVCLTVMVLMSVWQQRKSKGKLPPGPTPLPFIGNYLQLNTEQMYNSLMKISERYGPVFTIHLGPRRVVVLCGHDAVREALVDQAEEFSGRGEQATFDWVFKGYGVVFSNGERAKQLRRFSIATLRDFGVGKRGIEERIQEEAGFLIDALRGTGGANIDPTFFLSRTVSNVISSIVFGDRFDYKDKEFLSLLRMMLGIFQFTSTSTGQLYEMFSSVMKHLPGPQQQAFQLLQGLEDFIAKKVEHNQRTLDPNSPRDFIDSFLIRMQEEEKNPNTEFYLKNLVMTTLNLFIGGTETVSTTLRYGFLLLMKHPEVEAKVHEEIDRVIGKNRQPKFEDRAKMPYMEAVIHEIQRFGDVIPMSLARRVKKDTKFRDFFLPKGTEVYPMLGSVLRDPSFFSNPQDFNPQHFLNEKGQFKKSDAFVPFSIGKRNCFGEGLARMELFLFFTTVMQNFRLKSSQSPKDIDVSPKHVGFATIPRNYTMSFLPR
Nature of the series: (§2) Inhibition of recombinant human CYP2A6. Type of series: ADME.

The nature of series [4]: Toxicity in ob/ob mouse assessed as induction of body weight gain at 1 to 10 mg/kg, po dosed once every three days for 31 days. The conditions noted are these: in vivo, 744 h. Type of series: organism-based.
A short description of series [5]: Oral bioavailability in ICR mouse at 2 mg/kg measured after 0.0833 to 120 hrs by LC-MS-MS analysis. Type of series: ADME, organism-based. The conditions noted are these: in vivo.
In a further series the target is CYP2A6 (Homo sapiens, UniProt P11509). Nature of the series: Stability assessed as recombinant human CYP2A6 mediated compound metabolism by measuring parent compound remaining after 30 mins relative to control. The conditions noted are these: read-out: Stability. The format is ADME.
The subject of the next series is Rhesus monkey. Nature of the series: Ex-vivo inhibition of DPP4 in plasma isolated from rhesus monkey treated at 10 mg/kg, ig after 2 weeks by fluorescence based assay relative to control. The settings on record: Macaca mulatta, po, 336 h. Type of series: functional.
The target in series [6] is T2, Cytochrome P450 2A6. Described as §2. Type of series: ADME. This is another data set of the same source.
The target in the next series is Dipeptidyl peptidase 9 (Homo sapiens, UniProt Q86TI2). Briefly: Inhibition of human recombinant DPP9 incubated for 15 mins using Gly-Pro-7-AMC substrate.
Sequence of Dipeptidyl peptidase 9 (Q86TI2 whole entry): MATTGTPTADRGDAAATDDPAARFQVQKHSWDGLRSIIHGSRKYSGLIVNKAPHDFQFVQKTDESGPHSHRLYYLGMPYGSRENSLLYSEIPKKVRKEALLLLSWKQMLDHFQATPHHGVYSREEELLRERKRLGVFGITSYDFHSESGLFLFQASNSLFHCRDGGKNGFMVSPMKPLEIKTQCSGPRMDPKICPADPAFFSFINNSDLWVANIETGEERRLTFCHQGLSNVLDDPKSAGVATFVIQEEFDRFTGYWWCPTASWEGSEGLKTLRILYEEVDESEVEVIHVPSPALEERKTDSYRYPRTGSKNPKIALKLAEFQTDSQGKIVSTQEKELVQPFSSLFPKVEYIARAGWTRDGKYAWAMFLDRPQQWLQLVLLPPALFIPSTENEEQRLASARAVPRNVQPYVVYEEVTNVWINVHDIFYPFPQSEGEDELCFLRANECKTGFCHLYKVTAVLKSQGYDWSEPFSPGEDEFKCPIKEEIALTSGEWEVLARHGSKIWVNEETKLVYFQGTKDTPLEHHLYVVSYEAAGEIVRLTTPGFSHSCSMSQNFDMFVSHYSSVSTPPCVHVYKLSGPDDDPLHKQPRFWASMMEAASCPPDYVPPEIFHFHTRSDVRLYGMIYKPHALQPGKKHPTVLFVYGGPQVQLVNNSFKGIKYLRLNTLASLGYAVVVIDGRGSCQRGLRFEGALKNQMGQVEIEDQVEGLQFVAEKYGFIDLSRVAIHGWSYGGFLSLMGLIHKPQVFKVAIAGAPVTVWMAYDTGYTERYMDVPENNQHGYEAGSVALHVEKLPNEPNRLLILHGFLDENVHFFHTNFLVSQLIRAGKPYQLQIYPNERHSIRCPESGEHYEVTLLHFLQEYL
In series [7] the target is T1, Cytochrome P450 3A5. Described as §1. The format is ADME. The source holds these as a separate data set.
Series [8] addresses T3, Cytochrome P450 1A2 (Homo sapiens, UniProt P05177).
T3 sequence (P05177 whole entry): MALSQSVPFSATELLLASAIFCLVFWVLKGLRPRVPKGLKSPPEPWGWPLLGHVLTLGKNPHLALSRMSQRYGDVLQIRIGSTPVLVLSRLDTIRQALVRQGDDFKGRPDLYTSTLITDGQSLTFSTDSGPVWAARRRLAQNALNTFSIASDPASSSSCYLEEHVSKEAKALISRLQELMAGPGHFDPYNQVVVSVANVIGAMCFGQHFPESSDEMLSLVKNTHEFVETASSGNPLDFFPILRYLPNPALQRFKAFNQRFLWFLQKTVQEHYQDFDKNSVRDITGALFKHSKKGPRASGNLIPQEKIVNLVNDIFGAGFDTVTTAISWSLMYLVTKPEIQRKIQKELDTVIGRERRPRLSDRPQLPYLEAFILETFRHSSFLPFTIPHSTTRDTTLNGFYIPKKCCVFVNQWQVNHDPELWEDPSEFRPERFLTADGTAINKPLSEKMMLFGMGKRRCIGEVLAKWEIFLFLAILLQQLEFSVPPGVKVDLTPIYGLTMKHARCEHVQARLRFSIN
Nature of the series: (§3) Inhibition of recombinant human CYP1A2. Type of series: ADME.

Another series concerns the target Cytochrome P450 2C9 (Homo sapiens, UniProt P11712). Nature of the series: Inhibition of recombinant human CYP2C9. The format is ADME.
For a further series, the target named is Cytochrome P450 3A4 (Homo sapiens, UniProt P08684). Briefly: Inhibition of recombinant human CYP3A4 using testosterone as substrate. Type of series: ADME.
Sequence of Cytochrome P450 3A4 (P08684 whole entry): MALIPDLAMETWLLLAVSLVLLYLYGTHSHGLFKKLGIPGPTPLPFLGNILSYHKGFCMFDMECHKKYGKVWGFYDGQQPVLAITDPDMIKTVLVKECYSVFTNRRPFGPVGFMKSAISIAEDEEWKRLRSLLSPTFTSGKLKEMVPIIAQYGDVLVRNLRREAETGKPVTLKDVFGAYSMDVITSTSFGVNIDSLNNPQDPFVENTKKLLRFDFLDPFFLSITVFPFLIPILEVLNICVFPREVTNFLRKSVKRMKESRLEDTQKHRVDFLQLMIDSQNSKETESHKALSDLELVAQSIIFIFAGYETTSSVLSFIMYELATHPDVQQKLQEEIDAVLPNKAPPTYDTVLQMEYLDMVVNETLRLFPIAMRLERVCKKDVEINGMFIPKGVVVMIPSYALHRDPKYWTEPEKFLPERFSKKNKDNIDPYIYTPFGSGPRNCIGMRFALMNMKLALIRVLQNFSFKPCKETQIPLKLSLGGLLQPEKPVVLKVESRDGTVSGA
The next series concerns Mus musculus. Briefly: Antidiabetic activity in ob/ob mouse assessed as reduction in decrease in HbA1c level at 3 mg/kg, po dosed once every three days for 31 day relative to control. Type of series: functional. Also on record: scale not given: the % may be the effect or the level left.
The target of a further series is CYP2C9 (Homo sapiens, UniProt P11712). Briefly: Stability assessed as recombinant human CYP2C9 mediated compound metabolism by measuring parent compound remaining after 30 mins relative to control. The format is ADME. The conditions noted are these: read-out: Stability.
Sequence of CYP2C9 (P11712 whole entry): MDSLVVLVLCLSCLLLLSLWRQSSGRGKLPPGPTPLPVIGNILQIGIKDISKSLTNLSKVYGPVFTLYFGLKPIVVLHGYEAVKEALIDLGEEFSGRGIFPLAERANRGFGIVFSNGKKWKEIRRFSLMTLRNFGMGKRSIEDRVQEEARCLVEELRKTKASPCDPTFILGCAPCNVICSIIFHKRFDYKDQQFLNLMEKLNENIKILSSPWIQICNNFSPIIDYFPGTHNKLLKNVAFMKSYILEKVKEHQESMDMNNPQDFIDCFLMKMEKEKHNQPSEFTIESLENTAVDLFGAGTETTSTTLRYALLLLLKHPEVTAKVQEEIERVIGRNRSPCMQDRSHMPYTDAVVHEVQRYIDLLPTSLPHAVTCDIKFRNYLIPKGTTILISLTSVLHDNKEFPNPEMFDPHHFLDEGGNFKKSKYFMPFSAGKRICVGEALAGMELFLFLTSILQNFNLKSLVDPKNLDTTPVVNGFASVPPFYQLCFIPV
In another series the target is Cytochrome P450 2C19 (Homo sapiens, UniProt P33261). Briefly: Inhibition of recombinant human CYP2C19. The format is ADME.
Sequence of Cytochrome P450 2C19 (P33261 whole entry): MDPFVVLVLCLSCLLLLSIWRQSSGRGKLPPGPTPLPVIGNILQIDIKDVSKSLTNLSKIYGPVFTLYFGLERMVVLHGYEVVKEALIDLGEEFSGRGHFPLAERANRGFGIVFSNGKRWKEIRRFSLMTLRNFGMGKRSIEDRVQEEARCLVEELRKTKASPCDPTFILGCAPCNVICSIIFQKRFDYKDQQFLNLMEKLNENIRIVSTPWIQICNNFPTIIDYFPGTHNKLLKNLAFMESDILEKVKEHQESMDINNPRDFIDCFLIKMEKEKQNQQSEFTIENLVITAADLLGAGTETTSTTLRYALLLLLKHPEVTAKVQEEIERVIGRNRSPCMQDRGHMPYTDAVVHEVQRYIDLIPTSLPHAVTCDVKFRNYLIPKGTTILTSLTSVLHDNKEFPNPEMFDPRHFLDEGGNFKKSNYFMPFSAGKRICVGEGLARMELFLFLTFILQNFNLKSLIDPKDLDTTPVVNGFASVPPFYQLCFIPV
Series [9] in a line: AUC in female Sprague-Dawley rat during 3-month repeated dose toxicology study. Type of series: ADME. The conditions noted are these: in vivo.
A short description of series [10]: Volume of distribution at steady state in ICR mouse at 0.5 mg/kg, iv measured after 0.0833 to 120 hrs by LC-MS-MS analysis. Type of series: ADME, organism-based. The settings on record: in vivo, read-out: Vdss.
The target of series [11] is T3, Cytochrome P450 1A2. Described as §3. The format is ADME. The source holds these as a separate data set.
The target in another series is T4, Cytochrome P450 2B6 (Homo sapiens, UniProt P20813).
T4 sequence (P20813 whole entry): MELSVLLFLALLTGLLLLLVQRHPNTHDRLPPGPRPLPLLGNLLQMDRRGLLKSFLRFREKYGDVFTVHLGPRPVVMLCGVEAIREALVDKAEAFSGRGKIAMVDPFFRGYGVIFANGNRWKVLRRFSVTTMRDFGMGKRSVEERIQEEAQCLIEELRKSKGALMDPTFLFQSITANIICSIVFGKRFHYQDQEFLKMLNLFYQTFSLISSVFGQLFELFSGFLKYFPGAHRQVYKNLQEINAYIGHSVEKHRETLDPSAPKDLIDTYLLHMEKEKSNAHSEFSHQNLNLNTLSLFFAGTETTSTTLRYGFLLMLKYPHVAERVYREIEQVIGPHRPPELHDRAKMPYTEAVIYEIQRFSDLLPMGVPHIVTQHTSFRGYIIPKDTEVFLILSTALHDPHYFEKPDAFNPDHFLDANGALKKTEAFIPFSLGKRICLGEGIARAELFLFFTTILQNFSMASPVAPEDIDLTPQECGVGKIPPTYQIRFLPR
Nature of the series: Inhibition of recombinant human CYP2B6. The format is ADME.

Another series deals with CYP2C8 (Homo sapiens, UniProt P10632). Nature of the series: Stability assessed as recombinant human CYP2C8 mediated compound metabolism by measuring parent compound remaining after 30 mins relative to control. Type of series: ADME. The settings on record: read-out: Stability.
Sequence of CYP2C8 (P10632 whole entry): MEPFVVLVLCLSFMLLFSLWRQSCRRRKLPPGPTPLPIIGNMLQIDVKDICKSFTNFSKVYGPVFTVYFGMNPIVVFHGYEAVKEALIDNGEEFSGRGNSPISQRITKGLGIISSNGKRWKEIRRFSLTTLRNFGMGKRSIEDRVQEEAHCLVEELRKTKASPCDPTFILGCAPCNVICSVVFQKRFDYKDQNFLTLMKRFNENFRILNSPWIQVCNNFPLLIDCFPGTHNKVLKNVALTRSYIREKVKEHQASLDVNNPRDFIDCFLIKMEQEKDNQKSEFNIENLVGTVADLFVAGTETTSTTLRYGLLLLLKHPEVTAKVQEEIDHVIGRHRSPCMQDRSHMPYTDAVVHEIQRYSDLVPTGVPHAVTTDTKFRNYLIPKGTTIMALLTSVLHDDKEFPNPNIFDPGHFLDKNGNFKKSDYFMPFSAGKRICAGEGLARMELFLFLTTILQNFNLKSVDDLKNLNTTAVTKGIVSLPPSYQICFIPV

T1 sequence (P20815 whole entry): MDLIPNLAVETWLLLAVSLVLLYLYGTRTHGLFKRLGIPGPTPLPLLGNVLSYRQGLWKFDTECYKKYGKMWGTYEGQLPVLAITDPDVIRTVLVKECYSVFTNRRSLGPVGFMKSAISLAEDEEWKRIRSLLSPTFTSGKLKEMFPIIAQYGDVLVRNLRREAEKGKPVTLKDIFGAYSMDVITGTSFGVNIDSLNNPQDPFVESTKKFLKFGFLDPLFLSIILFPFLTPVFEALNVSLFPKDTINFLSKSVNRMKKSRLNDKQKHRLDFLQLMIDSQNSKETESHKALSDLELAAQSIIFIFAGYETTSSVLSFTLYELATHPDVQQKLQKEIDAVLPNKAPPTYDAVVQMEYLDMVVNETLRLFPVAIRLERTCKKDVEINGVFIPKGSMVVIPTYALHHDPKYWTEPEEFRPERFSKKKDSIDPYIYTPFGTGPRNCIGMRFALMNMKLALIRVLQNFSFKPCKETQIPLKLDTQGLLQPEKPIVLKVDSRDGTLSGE
Sequence of Cytochrome P450 2C9 (P11712 whole entry): as the sequence (P11712 whole entry) above

In general, IC50 refers to the point on the concentration scale where inhibition reaches its midpoint. What is called AUC(0-t) is the area under the concentration-time curve up to a stated or last time point. By bioavailability is commonly meant dose-corrected exposure relative to a reference, in per cent. One may read the inhibition in vivo as how much of the control response was suppressed. One may read the AUC as concentration integrated over time. Consider `CS(=O)(=O)n1cc2c(n1)CN([C@@H]1C[C@H](N)[C@@H](c3cc(F)ccc3F)O[C@@H]1C(F)(F)F)C2` [COFROGLIPTIN], for which the IC50 on Cytochrome P450 3A5 [1], on Cytochrome P450 2A6 [3], at Cytochrome P450 2A6 [6], on Dipeptidyl peptidase 9, at Cytochrome P450 3A5 [7] and at Cytochrome P450 1A2 [8] was > 100 µM throughout. The concentration for half-maximal inhibition (IC50) at Cytochrome P450 2C9, at Cytochrome P450 3A4, on Cytochrome P450 2C19, at Cytochrome P450 1A2 [11] and on Cytochrome P450 2B6 was > 100 µM each time. The molecule further registered an area under the curve AUC(0-t) in series [2] of 7.9 µg·h/mL. The figures for the Activity entry (in series [4]; in the series on Mus musculus) were “Toxic” and 19.1%, respectively. The same molecule returned a bioavailability in series [5] of 62.2%. Besides, the remaining at 0.5 h at CYP2A6, at CYP2C9 and on CYP2C8 was > 95% each time. Besides, 10 mg/kg produced 76.2% inhibition in vivo in the series with Rhesus monkey. This molecule came in with an AUC in series [9] of 4240 µg·h/mL. Besides, the Vd in series [10] came to 3.3 L/kg.

These data come from ChEMBL document CHEMBL4613324, “Design, Synthesis, and Evaluation of a Series of Novel Super Long-Acting DPP-4 Inhibitors for the Treatment of Type 2 Diabetes” (J Med Chem, 2020).
